Entries after “also recorded” stand apart in the source; their conditions may differ.
How the values were obtained:
Format in all cases: cell-based
[1] = test system: human NHIK 3025/MEM cervix carcinoma cells; assay: Rate of protein synthesis ([3H]-valine incorporation) in NHIK 3025 cells; conditions: NHIK 3025/MEM cells, 1 hour treatment with [3H]-valine, compared to prior art compound 15
Source text: Human cells of the established line NHIK 3025, originating from a cervical carcinoma in situ (Nordbye, K. and Oftebro, R., Exp. Cell Res., 58: 458, (1969)), (Oftebro, R. and Nordbye, K., Exp. Cell Res., 58: 459-460, (1969)) were cultivated in medium E2a (Puck et al., J. Exp. Med., 106: 145-165, (1957)) supplemented with 20% human (prepared at the laboratory) and 10% horse serum (Grand Island Biological Co.).
(§1) The cells are routinely grown as monolayers in tissue culture flasks. The cells were kept in continuous exponential growth by frequent reculturing, i.e. every second or third day.
(§2) During reculturing as well as during experiments the cells were kept in a walk-in incubator at 37°C.
(§3) The rate of protein synthesis was calculated as described previously (Rønning et al., J. Cell Physiol., 107: 47-57, (1981)). Briefly, cellular protein was labeled to saturation during a 2-day preincubation with [¹⁴C]-valine of constant specific radioactivity (0.5 Ci/mol) prior to the experiment. This was achieved by using a high concentration of valine so that the dilution of [¹⁴C]- valine by intracellular valine and by proteolytically generated valine will be negligible (Rønning et al., Exp. Cell Res., 123: 63-72, (1979)), thus keeping the specific radioactivity at a constant level. The rate of protein synthesis was calculated from the incorporation of [³H]-valine of constant specific activity. The incorporated measurements were related to the total of [¹⁴C]-radioactivity in protein at the beginning of the respective measurement periods and expressed as the percentage per hr (Rønning et al., J. Cell. Physiol., 107: 47-57, (1981)).
In Figure 1 the rate of protein synthesis (as % of control rate) is shown in relation to the concentration of imine used in the treatment of human NHIK 3025/MEM cervix carcinoma cells cultivated in vitro. The treatment period was for 1 hour during which the cell culture medium contained [³H]-valine in addition to the test compound. […]

[2] = test system: non-malignant cell line V79 (Chinese hamster lung cells); assay: Rate of protein synthesis in V79 cells; conditions: Figure 4
Source text: V79 379-A cells were provided by Dr. Laszlo Révész (Karolinska Institutet, Stockholm) in 1976 and have since been cultivated in MEM medium (Hank's salts) supplemented with 15% newborn bovine serum. These cells are a clone of the line V79, isolated from Chinese hamster normal lung tissue and established in culture by Ford and Yerganian (see J. Natl. Cancer Inst. 21, (1958) 393-425).
as §1, §2, §3
In Figure 4 the effect of two preferred imines according to the invention, compounds 3 and 7 , on the rate of protein synthesis in the non-malignant cell line V79 (Chinese hamster lung cells).

[3] = test system: 3T3 cells (derived from mouse embryo); assay: Rate of protein synthesis in 3T3 cells; conditions: Figure 5
Source text: Balb 3T3-A cells were isolated by Aaronsen and Todaro (J. Cell Physiol. 72, (1968)) 41-148) and were provided by Dr. T.Ege (Karolinska Institutet, Stockholm) in 1980 and have since been cultivated in MEM medium (Hank's salts) supplemented with 15% newborn bovine serum.
as §1, §2, §3
In Figure 5 the effect of compounds 3 and 7 on the rate of the protein synthesis of 3T3 cells (derived from mouse embryo) is shown.

[4] = test system: human pancreatic carcinoma cell line PANC-1; assay: Rate of protein synthesis and cell inactivation ([14C]-radioactivity) in PANC-1 cells; conditions: for cell inactivating effect at concentrations (decline in [¹⁴C]-radioactivity): decrease in [14C]-radioactivity is a sign of cell death
Procedure: PANC-1 cells were purchased from the American Type Culture Collection (ATCC) in 1990. These cells were derived from a human adenocarcinoma of ductal origin (Lieber et al, Int. J. Cancer 15, (1975) 741-747).
as §1, §2, §3
In Figures 6a) and b) the human pancreatic carcinoma cell line PANC-1, cultivated in the medium MEM (with new born calf serum), was used .
In Figures 7a) and b) the human pancreatic carcinoma cell line PANC-1, cultivated in the medium E2a (with human and horse serum), was used .

[5] = test system: murine B16 melanoma cells; assay: Rate of protein synthesis in B16 melanoma cells; conditions: Figure 3, compared to prior art compound 15
Procedure: as §3
In Figure 3, the effect of two imine compounds, 3 and 7, according to the invention and the effect of the prior art compound 15 on the protein synthesis of murine B16 melanoma cells is shown.

Row | SMILES | rate of protein synthesis (as % of control rate) ([1]; Figure 1) | effect on the rate of protein synthesis [2] | effect on the rate of the protein synthesis [3] | effect on the protein synthesis [5] | other results
1 | COC(=O)c1ccc(C=NCCCCCCCCCCC(=O)O)cc1 [Compound 4, 11-(4-Carbomethoxy-benzylidene-Amino) -Undecanoic Acid] | inhibited to a greater degree; also recorded: strongest inhibition on protein synthesis |  |  |  | 
2 | [2H]C1(c2ccccc2)OC[C@@H]([C@H]2OC(=O)C(O)=C2O)O1 (stereo partly drawn) [Compound 15, Sodium 5,6-0-Benzylidene-d1-L-Ascorbate, reference compound] |  | little or no inhibition | little effect |  | protein synthesis inhibiting activity ([4]; Figures 6a/6b, PANC-1 in medium MEM (with new born calf serum)): little protein synthesis inhibiting activity; protein synthesis inhibiting activity ([4]; Figures 7a/7b, PANC-1 in medium E2a (with human and horse serum)): little protein synthesis inhibiting activity
3 | O=[N+]([O-])c1cccc(C=NCCCCO)c1 [Compound 7, 4-(3-Nitrobenzylidene-Amino)-Butan-1-ol] |  | significantly inhibit protein synthesis; also recorded: slightly more effective than compound 3 | strong protein synthesis inhibition | much stronger protein synthesis inhibiting effect | rate of protein synthesis (as % of control rate) ([1]; Figure 2): inhibited to a greater degree; also recorded: strongest inhibition on protein synthesis
4 | [2H]C(=NCCCN(C)C)c1ccccc1 [Compound 14, 1-(Benzylidene-d1-Amino)-3-(Dimethyl-amino)-Propane] |  |  |  |  | cell inactivating effect at concentrations (decline in [¹⁴C]-radioactivity) ([4]; Figure 6b, PANC-1 in medium MEM): above 2 mM; cell inactivating effect at concentrations (decline in [¹⁴C]-radioactivity) ([4]; Figure 7b, PANC-1 in medium E2a): above 2 mM
5 | O=C(O)CCCCCN=Cc1cccc([N+](=O)[O-])c1 [Compound 3, 6-(3-Nitrobenzylidene-Amino)-Hexanoic Acid] | inhibited to a greater degree; also recorded: strongest inhibition on protein synthesis | significantly inhibit protein synthesis | strong protein synthesis inhibition | much stronger protein synthesis inhibiting effect | 

— patent EP0609032A1, “Aromatic imine compounds, pharmaceutical composition thereof, useful as protein synthesis inhibitors” (NORSK HYDRO A/S, priority 1993, dated 1994)
